Series [1] has as its target C. jejuni NCTC 11168 PglD acetyltransferase (Campylobacter jejuni subsp. jejuni serotype O:2, UniProt Q0P9D1). Description: continuous C. jejuni PglD inhibition assay. In kind it is biochemical. As to conditions: for Km: PglD substrates.
The next series can be described thus: solubility properties. The series is classed as physicochemical.
A short description of series [2]: long-term stability in solution. The series is classed as physicochemical.
Series [3] deals with T1, C jejuni PglD (Campylobacter jejuni subsp. jejuni serotype O:2, UniProt Q0P9D1). Briefly: PglD inhibition assay with varying substrate concentrations. The series is classed as biochemical.
T1 sequence (Q0P9D1 whole entry): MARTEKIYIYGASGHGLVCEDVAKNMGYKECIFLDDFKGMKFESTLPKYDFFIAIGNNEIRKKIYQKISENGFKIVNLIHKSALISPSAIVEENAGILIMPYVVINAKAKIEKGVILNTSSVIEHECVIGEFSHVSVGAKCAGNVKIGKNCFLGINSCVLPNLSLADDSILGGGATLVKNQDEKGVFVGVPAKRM
Series [4] has as its target T1, C jejuni PglD. Description: dynamic light scattering of PglD/inhibitor complex. Particulars: apo PglD 31% PDI.
A further series relates to S. typhimurium. Particulars: mouse infection model; cited from earlier work.
The subject of the next series is F. tularensis. Particulars: both pre- and post-infection; cited from earlier work.
For series [5] the following is noted: at therapeutic doses; cited from earlier work.
Another series relates to pathogen growth. Particulars: in vitro; cited from earlier work.

Chain of C. jejuni NCTC 11168 PglD acetyltransferase (Q0P9D1 whole entry): as above

For orientation: Km means the substrate concentration at which the rate is half of its maximum. On to `CC(=O)SCCNC(=O)CCNC(=O)[C@H](O)C(C)(C)COP(=O)(O)OP(=O)(O)OC[C@H]1O[C@@H](n2cnc3c(N)ncnc32)[C@H](O)[C@@H]1OP(=O)(O)O` [AcCoA, acetyl coenzyme A], for which, in series [1], the Km stood at 295 µM.

For `Cc1c(C(=O)O)sc2nc(/C=C/c3ccc4[nH]ccc4c3)[nH]c(=O)c12` [Compound 4], in the series “solubility properties”, the solubility properties entry is “poor solubility properties”. Further, the “long-term stability in solution” value in series [2] was “poor long-term stability in solution”.

As to `COc1cc(CCNc2nc(CCc3ccccc3)nc3sc(C(=O)O)c(C)c23)cc(OC)c1` [Compound 37, 4-((3,5-Dimethoxyphenethyl)amino)-5-methyl-2-phenethylthieno[2,3-d]pyrimidine-6-carboxylic acid], the decrease in potency on C jejuni PglD [3] (2-fold increase in AcCoA) was found to be 2 fold; at C jejuni PglD [3] (5-fold increase in AcCoA), 4 fold. For the same molecule, the “effect of higher UDP-4-amino-sugar concentrations on the inhibition” value at C jejuni PglD [3] (significantly higher UDP-4-amino-sugar concentrations) was “no measurable effect”.

As to `CNc1nc(CCc2ccccn2)nc2sc(C(=O)O)c(C)c12` [Compound 43, 5-Methyl-4-(methylamino)-2-(2-(pyridin-2-yl)ethyl)thieno[2,3-d]pyrimidine-6-carboxylic acid], in series [1] (43 vs 17), the “enhancement of potency versus 17” value was 4.8 fold.

`CO[C@H](CNc1nc(CCc2ccc(NC(C)=O)cc2)nc2sc(C(=O)O)c(C)c12)c1ccccc1` [Compound 55, (S)-2-(4-Acetamidophenethyl)-4-((2-methoxy-2-phenylethyl)amino)-5-methylthieno[2,3-d]pyrimidine-6-carboxylic acid]: the “polydispersity index (PDI) of PglD/inhibitor complex” value on C jejuni PglD [4] is on record as 24 % PDI.

`O=S(=O)(Nc1ccccc1)c1ccc(NC(=S)Nc2ccccc2)cc1` [Compound 56, N-phenyl-4-(3-phenylthioureido)benzenesulfonamide]: the “efficacy against S. typhimurium” value with S. typhimurium is “prophylactic efficacy”. In addition, the “protection against F. tularensis” value in the series with F. tularensis is “provided protection”. Moreover, the toxicity entry in series [5] was “not toxic”. Besides, in the series with pathogen growth, the “effect on pathogen growth” value was “did not affect pathogen growth”.

For the molecule `CC(=O)N[C@H]1[C@@H](OP(=O)(O)OP(=O)(O)OC[C@H]2O[C@@H](n3ccc(=O)[nH]c3=O)[C@H](O)[C@@H]2O)O[C@H](C)[C@@H](N)[C@@H]1O` [UDP-4-amino-sugar], the Km in [1] is 274 µM.

(Values after article PMC5506375 (Journal of medicinal chemistry, 2017).)
